Source: US20210400967A1, “COMPOSITIONS COMPRISING PYRIDINE CARBOXYLATE HERBICIDES WITH GLYPHOSATE OR GLUFOSINATE” (Corteva Agriscience LLC, priority 2018, published 2021)

Key:
Assay type in all cases: in vivo
[1] = test system: Setaria faberi (giant foxtail); assay: Greenhouse postemergence herbicidal effect, giant foxtail (SETFA); conditions: Example 3; Glyphosate 210 g ai/ha alone; 20-22 d
Text: (§1) Greenhouse Trial Methodology—Evaluation of Postemergence Herbicidal Effect
(§2) Seeds of the desired test plant species were planted in a 90:10% v/v (volume/volume) mixture of PRO-MIX® BX (Premier Tech Horticulture, Quakertown, Pa., USA) and PROFILE® GREENS GRADE™ (Profile Products LLC, Buffalo Grove, Ill., USA) planting mixture, which typically has a pH of 5.2 to 6.2 and an organic matter content of at least 50 percent, in plastic pots with a surface area of 103.2 square centimeters (cm^2). In some aspects, to ensure good germination and healthy plants, a fungicide treatment and/or other chemical or physical treatment was applied. The plants were grown for 7-36 days (d) in a greenhouse with an approximate 14-hour (h) photo-period which was maintained at about 23° C. during the day and 22° C. during the night. Nutrients and water were added on a regular basis and supplemental lighting was provided with overhead metal halide 1000-Watt lamps as necessary. The plants were employed for testing when they reached the second or third true leaf stage.
(§3) Emulsifiable concentrates of each of each pyridine carboxylate herbicide (Compound A or Compound B) were prepared at 100 grams acid equivalent per liter (g ae/L). The emulsifiable concentrates also included a safener, cloquintocet-mexyl, at 120 grams active ingredient per liter (g ai/L). An aliquot of each emulsifiable concentrate was placed in a 25 mL glass vial and diluted with an aqueous mixture of 1.25% (v/v) ACTIROB® B esterified rapeseed oil (Bayer Crop Science, Research Triangle Park, N.C., USA) or MSO® Concentrate with LECI-TECH® methylated soybean oil (Loveland Products, Loveland, Colo., USA) to obtain concentrated stock solutions at the highest application rate for each herbicide, based upon a 12 milliliter (mL) application volume at a rate of 187 liters per hectare (L/ha). The concentrated stock solutions were further diluted with an aqueous mixture of 1.25% v/v ACTIROB® B or MSO® Concentrate with LECI-TECH® to obtain stock solutions at reduced application rates for each herbicide. Spray solutions of the herbicide combinations (Compound A or Compound B plus glyphosate or glufosinate) were prepared by adding weighed amounts or aliquots of the glyphosate or glufosinate to the stock solutions of Compound A or Compound B to form 12-mL spray solutions in two-way combinations.
(§4) The spray solutions were applied to the plant material with an overhead Mandel track sprayer equipped with 8002E nozzles calibrated to deliver 187 L/ha over an application area of 0.503 square meters (m^2) at a spray height of 18 inches (43 centimeters (cm)) above the average plant canopy. Control plants were sprayed in the same manner with the solvent blank. All pyridine carboxylate herbicide (component a) application rates are given as “g ae/ha” and all glyphosate or glufosinate (component b) application rates are given as “g ai/ha.”
(§5) The treated plants and control plants were placed in a greenhouse as described above and watered by sub-irrigation to prevent wash-off of the test compounds. After 20-22 d, the condition of the test plants as compared with that of the control plants was determined visually and scored on a scale of 0 to 100 percent where 0 corresponds to no injury and 100 corresponds to complete kill.

[2] = test system: Triticum aestivum (spring wheat); assay: Greenhouse postemergence phytotoxicity on crop, spring wheat (TRZAS); conditions: 20-22 d
Text: as §1, §2, §3, §4, §5

[3] = test system: Hordeum vulgare (spring barley); assay: Greenhouse postemergence phytotoxicity on crop, spring barley (HORVS); conditions: 20-22 d
Text: as §1, §2, §3, §4, §5

[4] = test system: Chenopodium album L. (common lambsquarters); assay: Greenhouse postemergence herbicidal effect, common lambsquarters (CHEAL); conditions: 20-22 d
Text: as §1, §2, §3, §4, §5

[5] = test system: Sinapis arvensis (wild mustard); assay: Greenhouse postemergence herbicidal effect, wild mustard (SINAR); conditions: 20-22 d
Text: as §1, §2, §3, §4, §5

[6] = test system: Polygonum convolvulus (wild buckwheat); assay: Greenhouse postemergence herbicidal effect, wild buckwheat (POLCO); conditions: 20-22 d
Text: as §1, §2, §3, §4, §5

[7] = test system: Brassica napus (winter rape); assay: Greenhouse postemergence herbicidal effect, winter rape (BRSNW); conditions: 20-22 d
Text: as §1, §2, §3, §4, §5

[8] = test system: Brassica napus (spring rape); assay: Greenhouse postemergence herbicidal effect, spring rape (BRSNN); conditions: Example 3; Glyphosate 210 g ai/ha alone; 20-22 d
Text: as §1, §2, §3, §4, §5

[9] = test system: Salsola kali (Russian thistle); assay: Greenhouse postemergence herbicidal effect, Russian thistle (SASKR); conditions: 20-22 d
Text: as §1, §2, §3, §4, §5

[10] = test system: Matricaria chamomilla (wild chamomile); assay: Greenhouse postemergence herbicidal effect, wild chamomile (MATCH); conditions: 20-22 d
Text: as §1, §2, §3, §4, §5

[11] = test system: Amaranthus retroflexus (pigweed); assay: Greenhouse postemergence herbicidal effect, pigweed (AMARE); conditions: 20-22 d
Text: as §1, §2, §3, §4, §5

[12] = test system: Cirsium arvense (Canadian thistle); assay: Greenhouse postemergence herbicidal effect, Canadian thistle (CIRAR); conditions: 20-22 d
Text: as §1, §2, §3, §4, §5

[13] = test system: Kochia scoparia (kochia); assay: Greenhouse postemergence herbicidal effect, kochia (KCHSC); conditions: 20-22 d
Text: as §1, §2, §3, §4, §5

[14] = Example 1, Glyphosate 210 g ai/ha alone
[15] = Example 2, Glyphosate 420 g ai/ha alone
[16] = Example 3, Glyphosate 210 g ai/ha alone

## O=C(O)CNCP(=O)(O)O [Glyphosate, N-(phosphonomethyl)glycine]
[1]
  % visual injury, Obs: 30%
[2]; [14]
  % visual injury: 90%
[2]; [15]
  % visual injury, Obs: 90%
[3]; [14]
  % visual injury: 83%
[3]; [15]
  % visual injury, Obs: 80%
[4]; [14]
  % visual injury: 53%
[4]; [15]
  % visual injury, Obs: 75%
[4]; [16]
  % visual injury, Obs: 8%
[5]; [14]
  % visual injury: 50%
[5]; [15]
  % visual injury, Obs: 30%
[6]; [14]
  % visual injury: 65%
[6]; [15]
  % visual injury, Obs: 38%
[6]; [16]
  % visual injury, Obs: 20%
[7]; [14]
  % visual injury: 68%
[7]; [15]
  % visual injury, Obs: 35%
[8]
  % visual injury, Obs: 0%
[9]; [14]
  % visual injury: 10%
[9]; [15]
  % visual injury, Obs: 53%
[10]; [14]
  % visual injury: 60%
[10]; [15]
  % visual injury, Obs: 75%
[11]; [14]
  % visual injury: 100%
[11]; [15]
  % visual injury, Obs: 100%
[12]; [14]
  % visual injury: 38%
[12]; [15]
  % visual injury, Obs: 83%
[12]; [16]
  % visual injury, Obs: 40%
[13]; [14]
  % visual injury: 0%
[13]; [15]
  % visual injury, Obs: 38%
[13]; [16]
  % visual injury, Obs: 3%
